Laboratory results as given in patent publication US20230105212A1, “BIPHENYL DERIVATIVE INHIBITOR, PREPARATION METHOD THEREFOR AND USE THEREOF” (SHANGHAI HANSOH BIOMEDICAL CO., LTD., priority 2020, published 2023).

Key:
human PD-1/PD-L1 binding = biological target: T1, human PD-1/PD-L1 binding (Homo sapiens, UniProt Q9NZQ7); test: Inhibition of human PD-1/PD-L1 binding (TR-FRET/HTRF); settings: TR-FRET, PD-L1-His and PD-1-Fc; read-out: PD-1/PD-L1 binding IC50
T1 construct: PD-L1-His protein (19 to 238 amino acids) (Abcam #ab167713); purchased Abcam (PD-L1-His); R&D (PD-1-Fc) ab167713; 1086-PD
Summary of the method: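 PD-L1-His (aa 19–238, diluted to 10 nM) and PD-1-Fc (aa 25–167, diluted to 20 nM) incubated with compounds (10 μM or 1 μM top, 3-fold, 11 doses) 60 min at room temperature, then anti-6HIS Eu cryptate/anti-human IgG-XL665 added for 3 h RT or overnight 4 °C. HTRF 665/620 nm ratio gave inhibition and IC50.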

[1] = test system: CHO-PDL1/Jurkat-PD1 cell pathway; test: Inhibition of CHO-PDL1/Jurkat-PD1 cell pathway (NFAT luciferase reporter); type: cell-based; settings: for EC50: 6 hours incubation, luciferase signal; for maximal fold induction: relative to the signal value of the non-dosed group, read-out: Maximum induction fold
Description: Test Embodiment 3. Inhibitory Effect of the Compounds of the Present Disclosure on CHO-PDL1/Jurkat-PD1 Cell Pathway
Experimental purpose: The purpose of this test embodiment was to test the inhibitory effect of compounds on the CHO-PDL1/Jurkat-PD1 cell pathway.
Experimental method: Two stably transfected cell lines were included in this experiment, CHO-K1 cells stably transfected with PD-L1 and Jurkat cells stably transfected with PD-1 and NFAT luciferase reporter genes. Compounds were incubated with the two cell lines. Then, due to the inhibitory effect on the PD-1/PD-L1 pathway, the activation degree of Jurkat cells changed, so that the level of the reporter gene NFAT in the downstream of Jurkat cells changed, and the level of NFAT was characterized by detecting the signal value of luciferase, so that the inhibitory effect of the test compound on CHO-PDL1/Jurkat-PD1 pathway was characterized.
CHO-PDL1 cells (Promega, #J1252) were cultured to a suitable cell density. After digestion, the cells were resuspended by complete medium to become a suitable density of cell suspension. The cell suspension was plated 100 μL per well on a 96-well plate (Corning, #3610), and placed in a 37° C., 5% CO2 incubator and incubated overnight, and assay medium (RPMI 1640+2% FBS, RPMI 1640 Cat. No.: Gibco, #22400089, FBS Cat. No.: Gibco, #10091148) was used to prepare compound solutions of different concentrations. NFAT-luc2/PD1 Jurkat cells (Promega, #J1252) were collected and resuspended to the appropriate cell density using assay medium. The supernatant of the CHO-PDL1 cell culture plate was aspirated, and 40 μL of the prepared compound solution and 40 μL of resuspended NFAT-luc2/PD1 Jurkat cells were added, and incubated in a 5% CO2 incubator at 37° C. for 6 hours, and the cell plate was taken out, then 40 μL of One-Glo reagent (Promega, #E6120) was added to each well, shaked and mixed well, incubated in the dark at room temperature for 10 minutes, then put into a microplate reader and the luminescence program was used to read the luminescence value of the cell plate.
The EC50 value was fitted according to the compound concentration and the luminescence signal value, and the maximum induction fold of each compound relative to the signal value of the non-dosed group was calculated, as shown in Table 3.

[2] = biological target: T2, PD-L1 protein on the surface of MC38-hPDL1 tumor cells (Homo sapiens, UniProt Q9NZQ7); test: Induction of endocytosis of PD-L1 on the surface of tumor cells (flow cytometry); type: cell-based; settings: 16 hours incubation; for Emax: MC38-hPDL1 cells, read-out: MC38 maximum endocytosis rate; for IC50: inducing endocytosis of PD-L1, MC38-hPDL1 cells, read-out: MC38 IC50
T2 construct: expressed in transfected cells; host or cells: MC38-hPDL1 (mouse colon cancer cells)
Summary of the method: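 IC50 comes from nonlinear fits of endocytosis rate, calculated from the loss of surface PE-anti-CD274 flow signal relative to vehicle. Cells were MC38 mouse colon cancer cells engineered to express high human PD-L1. Compound exposure lasted 16 h at 37 °C, 5% CO2.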

[3] = test system: NFAT-luc2/PD1 Jurkat cells; test: In vitro cytotoxicity on NFAT-luc2/PD1 Jurkat cells (CellTiter-Glo); type: cell-based; settings: 72 hours; for IC50: Homo sapiens, Jurkat
Description: (§1) Test Embodiment 5. In Vitro Cytotoxicity of the Compounds of the Present Disclosure on NFAT-Luc2/PD1 Jurkat Cells and MC38-hPDL1 Cells
(§2) Experimental purpose: To test the in vitro cytotoxicity of compounds on NFAT-luc2/PD1 Jurkat cells and MC38-hPDL1 cells.
(§3) When the cells were cultured to an appropriate degree of confluency, the cells were collected, and the cells was adjusted in an appropriate cell concentration by complete medium, then the cell suspension was plated in a 96-well plate, 90 μL per well, and put in a 37° C., 5% CO2 incubator overnight; compound solutions of different concentrations were prepared by DMSO and medium, and a vehicle control was set; compound solutions were added to a 96-well plate, 10 μL per well, and put in a 37° C., 5% CO2 incubator and cultured for 72 hours. After that, CellTiter-Glo solution was added, the mixture was shaken and mixed evenly, incubated in the dark for 10 minutes, and a BioTek Synergy H1 microplate reader was used for reading.
(§4) Luminescence signal value was used to calculate the inhibition rate, and the concentration and inhibition rate were fitted by nonlinear regression curve using Graphpad Prism software to obtain IC50 values, as shown in the following table: […]

human PD-L1 protein = biological target: T3, human PD-L1 protein (Homo sapiens, UniProt Q9NZQ7); test: Thermal shift: melting temperature of PD-L1 protein; type: binding; settings: compound 10 μM, PD-L1 protein 2 μM, Tm minus DMSO vehicle control; read-out: ΔTm (° C.)
T3 construct: purchased Acro Biosystems PD1-H5229
Summary of the method: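 Human PD-L1 at 2 μM final was tested in […], 150 mM NaCl with SYPRO Orange, heated 25→95 °C at 0.03 °C/s in a PCR melt-curve run. Tm was taken per treatment; ΔTm is the shift relative to DMSO vehicle.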

MC38-hPDL1 cells = test: In vitro cytotoxicity on MC38-hPDL1 cells (CellTiter-Glo); type: cell-based, mouse; settings: for MC38-hPDL1 inhibition rate (%): 72 hours; for IC50: Mus musculus, MC38-hPD-L1, 72 hours
Description: as §1, §2, §3, §4

T2 sequence (Q9NZQ7 19-290): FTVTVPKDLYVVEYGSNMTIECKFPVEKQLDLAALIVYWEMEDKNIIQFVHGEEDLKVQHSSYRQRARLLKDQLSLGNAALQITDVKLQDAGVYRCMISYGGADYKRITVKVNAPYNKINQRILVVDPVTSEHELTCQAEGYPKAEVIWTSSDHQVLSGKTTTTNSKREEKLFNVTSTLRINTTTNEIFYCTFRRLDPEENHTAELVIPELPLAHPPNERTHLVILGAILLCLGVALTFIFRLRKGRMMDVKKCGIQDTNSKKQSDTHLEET
T3 sequence (Q9NZQ7 19-238 limits assumed): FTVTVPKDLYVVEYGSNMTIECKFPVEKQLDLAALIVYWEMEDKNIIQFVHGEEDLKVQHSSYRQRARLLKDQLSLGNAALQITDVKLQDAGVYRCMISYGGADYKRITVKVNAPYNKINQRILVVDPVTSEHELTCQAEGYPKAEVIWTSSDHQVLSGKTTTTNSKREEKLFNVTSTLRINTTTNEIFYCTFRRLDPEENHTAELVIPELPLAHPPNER
T1 sequence (Q9NZQ7 19-238): as the sequence (Q9NZQ7 19-238 limits assumed) above

Compound	IC50 (human PD-1/PD-L1 binding) [nM]	EC50 [1] [nM]	maximal fold induction [1]	Emax [2] [%]	IC50 [2] [nM]	Jurkat-PD1 inhibition rate (%) [3]	IC50 [3] [nM]	ΔTm at 10 µM (human PD-L1 protein) [°C]	MC38-hPDL1 inhibition rate (%) (MC38-hPDL1 cells)	IC50 (MC38-hPDL1 cells) [nM]
COc1cc(-c2cccc(-c3cccc(NC(=O)c4nc5c(n4C)CCN(C)C5)c3Cl)c2C)ncc1CNC[C@@H]1CCC(=O)N1 [Embodiment 58, (S)—N-(2-Chloro-3′-(4-methoxy-5-((((5-carbonylpyrrolidin-2-yl)methyl)amino)methyl)pyridin-2-yl)-2′-methyl-[1,1′-biphenyl]-3-yl)-1,5-dimethyl-4,5,6,7-tetrahydro-1H-imidazo[4,5-c]pyridine-2-carboxamide]	1.5	99	3.5	94	5.1					
COc1cc(C(=O)Nc2cccc(-c3cccc(NC(=O)c4nc5c(n4C)CCN(C)C5)c3Cl)c2C)ncc1CNC1(C(=O)O)COC1 [Embodiment 102, 3-(((6-((2′-Chloro-3′-(1,5-dimethyl-4,5,6,7-tetrahydro-1H-imidazo[4,5-c]pyridine-2-carboxamido)-2-methyl-[1,1′-biphenyl]-3-yl)carbamoyl)-4-methoxypyridin-3-yl)methyl)amino)oxetane-3-carboxylic Acid]	1					−12.0% ^	> 10000	10.8	−6.7%^	> 10000
COc1nc(-c2cccc(-c3cccc(NC(=O)c4nc5c(n4C)CCN(C)C5)c3Cl)c2Cl)ccc1CN1CC(CNC(C)=O)C1 [Embodiment 181, N-(3′-(5-((3-(Acetylaminomethyl)azetidin-1-yl)methyl)-6-methoxypyridin-2-yl)-2,2′-dichloro-[1,1′-biphenyl]-3-yl)-1,5-dimethyl-4,5,6,7-tetrahydro-1H-imidazo[4,5-c]pyridine-2-carboxamide]	3.4	59		97				15		
CNC(=O)C1CN(Cc2ccc(-c3cccc(-c4cccc(NC(=O)c5nc6c(n5C)CCN(C)C6)c4Cl)c3Cl)nc2OC)C1 [Embodiment 184, N-(2,2′-Dichloro-3′-(6-methoxy-5-((3-(methylcarbamoyl)azetidin-1-yl)methyl)pyridin-2-yl)-[1,1′-biphenyl]-3-yl)-1,5-dimethyl-4,5,6,7-tetrahydro-1H-imidazo[4,5-c]pyridine-2-carboxamide]	7	62	2.8	96				16.7		
COc1nc(-c2cccc(-c3cccc(NC(=O)c4nc5c(n4C)CCN(C)C5)c3Cl)c2Cl)ccc1CN1CC2(CN(C=O)C2)C1 [Embodiment 193, N-(2,2′-Dichloro-3′-(5-((6-formyl-2,6-diazaspiro[3.3]heptan-2-yl)methyl)-6-methoxypyridin-2-yl)-[1,1′-biphenyl]-3-yl)-1,5-dimethyl-4,5,6,7-tetrahydro-1H-imidazo[4,5-c]pyridine-2-carboxamide]	6.4	84	2.8	96				12.3		
COc1nc(-c2cccc(-c3cccc(NC(=O)c4nc5c(n4C)CCN(C)C5)c3Cl)c2Cl)ccc1CN1CC2(CCN(C(C)=O)C2)C1 [Embodiment 195, N-(3′-(5-((6-Acetyl-2,6-diazaspiro[3.4]octan-2-yl)methyl)-6-methoxypyridin-2-yl)-2,2′-dichloro-[1,1′-biphenyl]-3-yl)-1,5-dimethyl-4,5,6,7-tetrahydro-1H-imidazo[4,5-c]pyridine-2-carboxamide]	3.6	89	3.6	96				14.5		
COc1nc(-c2cccc(-c3cccc(NC(=O)c4nc5c(n4C)CCN(C)C5)c3Cl)c2Cl)ccc1CN1CCC2(CC1)CN(C(C)=O)C2 [Embodiment 197, N-(3′-(5-((2-Acetyl-2,7-diazaspiro[3.5]nonan-7-yl)methyl)-6-methoxypyridin-2-yl)-2,2′-dichloro-[1,1′-biphenyl]-3-yl)-1,5-dimethyl-4,5,6,7-tetrahydro-1H-imidazo[4,5-c]pyridine-2-carboxamide]	4.3	67	3.5	93				16		
COc1nc(-c2cccc(-c3cccc(NC(=O)c4nc5c(n4C)CCN(C)C5)c3Cl)c2Cl)cnc1CN1CC(F)C1 [Embodiment 217, N-(2,2′-Dichloro-3′-(5-((3-fluoroazetidin-1-yl)methyl)-6-methoxypyrazin-2-yl)-[1,1′-biphenyl]-3-yl)-1,5-dimethyl-4,5,6,7-tetrahydro-1H-imidazo[4,5-c]pyridine-2-carboxamide]				96	1.4	79%	5370	13	67%	7150
COc1nc(-c2cccc(-c3cccc(NC(=O)c4nc5c(n4C)CCN(C)C5)c3Cl)c2Cl)ncc1CN1CC2(C1)CN(C(C)=O)C2 [Embodiment 222, N-(3′-(5-((6-Acetyl-2,6-diazaspiro[3.3]heptan-2-yl)methyl)-4-methoxypyrimidin-2-yl)-2,2′-dichloro-[1,1′-biphenyl]-3-yl)-1,5-dimethyl-4,5,6,7-tetrahydro-1H-imidazo[4,5-c]pyridine-2-carboxamide]	5.2			92		36%	> 10000		0%	> 10000
COc1nc(-c2cccc(-c3cccc(NC(=O)c4nc5c(n4C4CC4)CCN(C)C5)c3Cl)c2Cl)ccc1CN1CC2(C1)CN(C(C)=O)C2 [Embodiment 243, N-(3′-(5-((6-Acetyl-2,6-diazaspiro[3.3]heptan-2-yl)methyl)-6-methoxypyridin-2-yl)-2,2′-dichloro-[1,1′-biphenyl]-3-yl)-1-cyclopropyl-5-methyl-4,5,6,7-tetrahydro-1H-imidazo[4,5-c]pyridine-2-carboxamide]	8.4	74	3.1	91						
